“And” between values parts separate entries of the source, which are not always exact repeats. Equal entries are not always repeated. Inconclusive results and toxic doses are left out. Cut-off read from the data, not from the text of the source: active = T/C of 150% or more; inactive = T/C below 125%.
Test system: L1210 leukemia ip in BDF1 mice, survival T/C
Assay: NCI In Vivo Anticancer Drug Screen. Data for tumor model L1210 Leukemia (intraperitoneal) in B6D2F1 (BDF1) mice
Settings: endpoint: mean survival time, higher = longer survival
Outline: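 Tumor cells were implanted, animals were treated, and survival was followed. The result divides the treated measurement by the vehicle-control measurement.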

[1] = dose: 25.0 mg/kg/injection, schedule: Q01DX009 (ip), vehicle: saline
[2] = dose: 100.0 mg/kg/injection, schedule: Q04DX003 (ip), vehicle: saline
[3] = dose: 200.0 mg/kg/injection, schedule: Q04DX003 (ip), vehicle: saline with Tween-80
[4] = dose: 400.0 mg/kg/injection, schedule: Q04DX003 (ip), vehicle: saline with Tween-80
[5] = dose: 6.25 mg/kg/injection, schedule: Q01DX009 (ip), vehicle: saline
[6] = dose: 100.0 mg/kg/injection, schedule: Q04DX003 (ip), vehicle: saline with Tween-80

Measured: T/C

CCN(CC)CCOc1cc(C)ccc1C
inactive: [1] 98 % of control | dose: 50.0 mg/kg/injection, schedule: Q01DX009 (ip), vehicle: saline 93 % of control | dose: 50.0 mg/kg/injection, schedule: Q04DX003 (ip), vehicle: saline 100 % of control | dose: 100.0 mg/kg/injection, schedule: Q01DX009 (ip), vehicle: saline 95 % of control | [2] 98 % of control

COc1ccc(C=Nc2cccc(O)c2)cc1
inactive: dose: 100.0 mg/kg/injection, schedule: Q01DX001 (ip), vehicle: carboxymethylcellulose (CMC) 95 % of control | dose: 200.0 mg/kg/injection, schedule: Q01DX001 (ip), vehicle: carboxymethylcellulose (CMC) 95 % of control | dose: 400.0 mg/kg/injection, schedule: Q01DX001 (ip), vehicle: carboxymethylcellulose (CMC) 92 % of control

OC1CCC(CC2CCCCC2)CC1 (configuration not stated)
inactive: [3] 92 % of control | [4] 91 % of control

CCc1ccc(/C=C/c2ccc(O)c3ncccc23)[n+](C)c1
inactive: dose: 2.0 mg/kg/injection, schedule: Q01DX015 (ip), vehicle: carboxymethylcellulose (CMC) 115 % of control | dose: 2.0 mg/kg/injection, schedule: Q03HX008 (ip), vehicle: other 94 % of control | dose: 2.0 mg/kg/injection, schedule: Q03HX016 (ip), vehicle: other 90 % of control | dose: 2.0 mg/kg/injection, schedule: Q03HX024 (ip), vehicle: other 98 % of control | dose: 4.0 mg/kg/injection, schedule: Q01DX009 (ip), vehicle: carboxymethylcellulose (CMC) 120 % of control | dose: 4.0 mg/kg/injection, schedule: Q01DX009 (ip), vehicle: other 97 % of control | dose: 4.0 mg/kg/injection, schedule: Q01DX015 (ip), vehicle: carboxymethylcellulose (CMC) 108 % of control | dose: 4.0 mg/kg/injection, schedule: Q03HX008 (ip), vehicle: other 98 % of control | dose: 4.0 mg/kg/injection, schedule: Q03HX016 (ip), vehicle: other 96 % of control | dose: 4.0 mg/kg/injection, schedule: Q03HX024 (ip), vehicle: other 97 % of control | dose: 5.0 mg/kg/injection, schedule: Q01DX001 (ip), vehicle: carboxymethylcellulose (CMC) 94 % of control | [5] 108 % of control | dose: 6.25 mg/kg/injection, schedule: Q04DX003 (ip), vehicle: saline 107 % of control | dose: 8.0 mg/kg/injection, schedule: Q01DX009 (ip), vehicle: other 106 % of control | dose: 8.0 mg/kg/injection, schedule: Q01DX015 (ip), vehicle: carboxymethylcellulose (CMC) 113 % of control | dose: 8.0 mg/kg/injection, schedule: Q03HX008 (ip), vehicle: other 104 % of control | dose: 8.0 mg/kg/injection, schedule: Q03HX016 (ip), vehicle: other 103 % of control | dose: 8.0 mg/kg/injection, schedule: Q03HX024 (ip), vehicle: other 108 % of control | dose: 10.0 mg/kg/injection, schedule: Q01DX001 (ip), vehicle: carboxymethylcellulose (CMC) 100 % of control | dose: 12.5 mg/kg/injection, schedule: Q01DX001 (ip), vehicle: saline 104 % of control | dose: 12.5 mg/kg/injection, schedule: Q01DX009 (ip), vehicle: saline 124 % of control | dose: 12.5 mg/kg/injection, schedule: Q04DX003 (ip), vehicle: saline 110 % of control | dose: 16.0 mg/kg/injection, schedule: Q01DX001 (ip), vehicle: other 107 % of control | dose: 16.0 mg/kg/injection, schedule: Q01DX009 (ip), vehicle: other 120 % of control | dose: 16.0 mg/kg/injection, schedule: Q03HX008 (ip), vehicle: other 112 % of control | dose: 16.0 mg/kg/injection, schedule: Q03HX016 (ip), vehicle: other 110 % of control | dose: 16.0 mg/kg/injection, schedule: Q03HX024 (ip), vehicle: other 122 % of control | dose: 16.0 mg/kg/injection, schedule: Q04DX003 (ip), vehicle: other 100 % of control | dose: 16.0 mg/kg/injection, schedule: Q08DX002 (ip), vehicle: other 97 % of control | dose: 20.0 mg/kg/injection, schedule: Q01DX001 (ip), vehicle: carboxymethylcellulose (CMC) 112 % of control | dose: 25.0 mg/kg/injection, schedule: Q01DX001 (ip), vehicle: saline 114 % of control | [1] 117 % of control | dose: 25.0 mg/kg/injection, schedule: Q04DX003 (ip), vehicle: saline 110 % of control | dose: 32.0 mg/kg/injection, schedule: Q01DX001 (ip), vehicle: other 102 % of control | dose: 32.0 mg/kg/injection, schedule: Q01DX009 (ip), vehicle: other 123 % of control | dose: 32.0 mg/kg/injection, schedule: Q01DX015 (ip), vehicle: carboxymethylcellulose (CMC) 121 % of control | dose: 32.0 mg/kg/injection, schedule: Q04DX003 (ip), vehicle: other 96 % of control | dose: 32.0 mg/kg/injection, schedule: Q08DX002 (ip), vehicle: other 96 % of control | dose: 40.0 mg/kg/injection, schedule: Q01DX001 (ip), vehicle: carboxymethylcellulose (CMC) 112 % of control

CCCCCCCCCCCCCCCCCC(=O)c1ccccc1
inactive: dose: 100.0 mg/kg/injection, schedule: Q01DX009 (ip), vehicle: Klucel (hydroxypropylcellulose) (HPC) 105 % of control | dose: 200.0 mg/kg/injection, schedule: Q01DX009 (ip), vehicle: Klucel (hydroxypropylcellulose) (HPC) 105 % of control | dose: 400.0 mg/kg/injection, schedule: Q01DX009 (ip), vehicle: Klucel (hydroxypropylcellulose) (HPC) 100 % of control

Cc1ccc(CNc2ccc(F)cc2)cc1
inactive: dose: 100.0 mg/kg/injection, schedule: Q01DX009 (ip), vehicle: saline with Tween-80 94 % of control | [6] 92 % of control | dose: 200.0 mg/kg/injection, schedule: Q01DX009 (ip), vehicle: saline with Tween-80 100 % of control | [3] 102 % of control | dose: 400.0 mg/kg/injection, schedule: Q01DX009 (ip), vehicle: saline with Tween-80 97 % of control | [4] 113 % of control

O=C1CCCCC(=O)OCCC1
inactive: dose: 100.0 mg/kg/injection, schedule: Q01DX001 (ip), vehicle: saline 93 % of control | dose: 200.0 mg/kg/injection, schedule: Q01DX001 (ip), vehicle: saline 98 % of control | dose: 400.0 mg/kg/injection, schedule: Q01DX001 (ip), vehicle: saline 88 % of control

CN=C(C)C1=C(O)C(CC(=O)OC)N(C)C1=O (configuration not stated)
inactive: [2] 103 % of control | dose: 200.0 mg/kg/injection, schedule: Q04DX003 (ip), vehicle: saline 102 % of control | dose: 400.0 mg/kg/injection, schedule: Q04DX003 (ip), vehicle: saline 96 % of control

CN(C)CC1CC(=O)C(CN(C)C)CC1=O (configuration not stated)
inactive: dose: 5.0 mg/kg/injection, schedule: Q01DX001 (ip), vehicle: saline 92 % of control | dose: 10.0 mg/kg/injection, schedule: Q01DX001 (ip), vehicle: saline 107 % of control | dose: 20.0 mg/kg/injection, schedule: Q01DX001 (ip), vehicle: saline 104 % of control | dose: 40.0 mg/kg/injection, schedule: Q01DX001 (ip), vehicle: saline 103 % of control

CCOC(=O)/C=C(\C#N)CC(=O)OCC
inactive: dose: 50.0 mg/kg/injection, schedule: Q01DX005 (ip), vehicle: saline 102 % of control | dose: 100.0 mg/kg/injection, schedule: Q01DX005 (ip), vehicle: saline 102 % of control | dose: 200.0 mg/kg/injection, schedule: Q01DX005 (ip), vehicle: saline 96 % of control | dose: 400.0 mg/kg/injection, schedule: Q01DX005 (ip), vehicle: saline 94 % of control

[Br][Pb]([c]1ccccc1)([c]1ccccc1)[c]1ccccc1
inactive: dose: 1.5 mg/kg/injection, schedule: Q01DX009 (ip), vehicle: saline 103 % of control | dose: 1.56 mg/kg/injection, schedule: Q04DX003 (ip), vehicle: acetone 93 % of control | dose: 3.12 mg/kg/injection, schedule: Q01DX009 (ip), vehicle: saline 100 % of control | dose: 3.12 mg/kg/injection, schedule: Q04DX003 (ip), vehicle: acetone 91 % of control | [5] 92 % of control | dose: 6.25 mg/kg/injection, schedule: Q04DX003 (ip), vehicle: acetone 88 % of control

CC(C)N(C(=O)C1C2C=CC(C2)C1C(=O)N(C(C)C)C(C)C)C(C)C (configuration not stated)
inactive: dose: 25.0 mg/kg/injection, schedule: Q04DX003 (ip), vehicle: saline with Tween-80 98 % of control | dose: 50.0 mg/kg/injection, schedule: Q04DX003 (ip), vehicle: saline with Tween-80 98 % of control | [6] 106 % of control and 107 % of control

O=C(C[n+]1cccc2ccccc21)c1ccc([N+](=O)[O-])cc1
inactive: dose: 100.0 mg/kg/injection, schedule: Q04DX002 (ip), vehicle: saline with Tween-80 109 % of control

Source: PubChem BioAssay AID248 (DTP/NCI, 2004)
